Test results: patent US6630127B2, “Method for assessing cortical response to blue light” (The McLean Hospital Corporation, priority 2000, dated 2003)

Assays:
[1] = system: human primary visual cortex (V1); assay: fMRI BOLD study with alternating red and blue photic stimulation after oral d-amphetamine or placebo
visual cortex = details: photic stimulation paradigm, humans; cited from earlier work

For `C[C@H](N)Cc1ccccc1.C[C@H](N)Cc1ccccc1.O=S(=O)(O)O` [d-amphetamine, d-amphetamine sulfate], the “Mean % BOLD signal change (all trials), V1, blue light stimulation” value ([1]; blue light 470 nm, 0.12 lux, 8 Hz, right and left V1 1x4 ROI, 2.5 mg d-amphetamine sulfate oral, N = 13) was 2.04%, the “mean BOLD signal change higher in drug than in placebo condition, blue light” value ([1]; blue light, drug 2.04% versus placebo 1.60%, all trials) was 28% and the “effect of time following drug administration on BOLD signal response to blue light” value ([1]; linear regression, 5 trials from about 18 min post-drug, Z=-2.471, P=0.013, decreasing BOLD signal over time) was “significant effect of time”. The “effect of time following drug administration on BOLD signal response to red light” value ([1]; linear regression, 5 trials, Z=-0.470, P=0.638) was “no significant effect of drug over time”, the “overall BOLD response to red and blue light” value ([1]; low dose (2.5 mg) d-amphetamine versus placebo) was “enhanced” and the “Mean % BOLD signal change (all trials), V1, red light stimulation” value ([1]; red light 660 nm, 0.12 lux, 8 Hz, right and left V1 1x4 ROI, 2.5 mg d-amphetamine sulfate oral, N = 13) was 1.24%. For the same compound, the “mean BOLD signal change higher in drug than in placebo condition, red light” value ([1]; red light, drug 1.24% versus placebo 0.95%, all trials) was 30%.
In the case of `CCO` [ethanol], the “effect on BOLD signal / photic activation in visual cortex” value (visual cortex) is given as “inhibits photic activation”.
